Test results from PubChem BioAssay (NCI).
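Tested at 5 concentrations; 48 h exposure; 96-well plates; endpoints linearly interpolated, else capped at highest concentration. GI50: concentration for 50% inhibition of growth. The concentration for full growth arrest is given as TGI.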

What was measured:
Test in all cases: DTP human tumour cell line panel, 48 h
[1] = tested on: HOP-62 NSCLC
[2] = tested on: RPMI-8226 leukemia
[3] = tested on: SW-620 colon
[4] = tested on: SR leukemia
[5] = tested on: HL-60(TB) leukemia
[6] = tested on: A549 NSCLC
[7] = tested on: SK-MEL-28 melanoma
[8] = tested on: MDA-MB-435
[9] = tested on: MCF7 breast
[10] = tested on: RXF 393 renal
[11] = tested on: K-562 leukemia
[12] = tested on: SK-MEL-5 melanoma
[13] = tested on: HCC-2998 colon
[14] = tested on: KM12 colon
[15] = tested on: U251 CNS
[16] = tested on: IGROV1 ovarian
[17] = tested on: CCRF-CEM leukemia
[18] = tested on: BT-549 breast
[19] = tested on: TK-10 renal
[20] = tested on: NCI-H23 lung
[21] = tested on: MOLT-4 leukemia
[22] = tested on: HOP-92 NSCLC
[23] = tested on: SNB-19 CNS
[24] = tested on: MDA-MB-231 breast
[25] = tested on: EKVX NSCLC
[26] = tested on: NCI-H522 lung
[27] = tested on: OVCAR-8 ovarian
[28] = tested on: OVCAR-5 ovarian

Question: Which results are given for `CN(Cc1ccccc1)S(=O)(=O)/N=C1\NC(=O)NC1=C(Cl)Cl`?
Answer: GI50 [1]: 3010 nM; TGI [1]: 11500 nM; GI50 [2]: 323 nM; TGI [2]: 1900 nM; GI50 [3]: 1800 nM; TGI [3]: 3550 nM; GI50 [4]: 525 nM; TGI [4]: 11500 nM; GI50 [5]: 2080 nM; TGI [5]: 5350 nM; GI50 [6]: 3900 nM; TGI [6]: 16800 nM; GI50 [7]: 1770 nM; TGI [7]: 3290 nM; GI50 [8]: 1800 nM; TGI [8]: 3450 nM; GI50 [9]: 338 nM; TGI [9]: 13500 nM; GI50 [10]: 1800 nM; TGI [10]: 3510 nM; GI50 [11]: 1040 nM; TGI [11]: > 100000 nM; GI50 [12]: 2050 nM; TGI [12]: 4270 nM; GI50 [13]: 1730 nM; TGI [13]: 3300 nM; GI50 [14]: 270 nM; TGI [14]: 744 nM; GI50 [15]: 1830 nM; TGI [15]: 3530 nM; GI50 [16]: 1880 nM; TGI [16]: 3750 nM; GI50 [17]: 1940 nM; TGI [17]: 5080 nM; GI50 [18]: 1880 nM; TGI [18]: 3470 nM; GI50 [19]: 2470 nM; TGI [19]: 29900 nM; GI50 [20]: 1790 nM; TGI [20]: 3550 nM; GI50 [21]: 2520 nM; TGI [21]: 7030 nM; GI50 [22]: 1740 nM; TGI [22]: 3360 nM; GI50 [23]: 2230 nM; TGI [23]: 5320 nM; GI50 [24]: 1790 nM; TGI [24]: 3300 nM; GI50 [25]: 1840 nM; TGI [25]: 3810 nM; GI50 [26]: 1990 nM; TGI [26]: 4310 nM; GI50 [27]: 2370 nM; TGI [27]: 6260 nM; GI50 [28]: 1690 nM; TGI [28]: 3170 nM
